Key:
TRPV3 = target: T1, TRPV3 (Mus musculus, UniProt Q8K424); experiment: Whole-cell patch clamp in CHO cells transfected with mouse Trpv3 cDNA; type: cell-based; settings: miR-711 10 μM; carvacrol 300 μM
T1 construct: expressed in transfected cells; host or cells: CHO cells (ATCC CRL-9096), plasmid pcDNA3.1-mTrpv3, a gift from Korea University
T1 sequence (Q8K424 1-791): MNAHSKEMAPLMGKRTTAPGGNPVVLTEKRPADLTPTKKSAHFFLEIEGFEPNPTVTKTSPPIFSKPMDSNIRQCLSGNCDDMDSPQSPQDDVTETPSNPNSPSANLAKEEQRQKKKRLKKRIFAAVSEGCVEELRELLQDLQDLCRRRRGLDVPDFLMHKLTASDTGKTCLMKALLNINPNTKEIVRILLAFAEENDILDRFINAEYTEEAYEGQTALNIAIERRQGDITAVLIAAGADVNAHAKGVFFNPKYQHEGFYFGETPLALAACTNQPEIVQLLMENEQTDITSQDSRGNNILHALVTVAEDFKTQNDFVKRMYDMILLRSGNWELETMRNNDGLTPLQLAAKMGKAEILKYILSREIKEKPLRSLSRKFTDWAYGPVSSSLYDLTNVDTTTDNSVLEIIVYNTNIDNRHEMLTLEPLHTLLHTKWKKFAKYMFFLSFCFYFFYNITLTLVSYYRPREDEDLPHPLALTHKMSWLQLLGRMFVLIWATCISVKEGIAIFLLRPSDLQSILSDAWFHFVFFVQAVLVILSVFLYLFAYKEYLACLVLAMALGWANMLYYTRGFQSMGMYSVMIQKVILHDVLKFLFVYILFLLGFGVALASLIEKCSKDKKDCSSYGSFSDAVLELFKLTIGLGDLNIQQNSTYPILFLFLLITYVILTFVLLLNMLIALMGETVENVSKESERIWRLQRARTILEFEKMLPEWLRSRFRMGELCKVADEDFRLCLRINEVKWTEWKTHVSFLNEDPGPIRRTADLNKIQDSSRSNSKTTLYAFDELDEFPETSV
Experimental: Constructs. The cDNAs of mouse pcDNA3.1-Trpa1, pcDNA3.1-Trpv1, pcDNA3.1-Trpv2, pcDNA3.1-Trpv3, and pcDNA3.1-Trpv4 were kindly provided Dr. Sun Work Hwang from Korea University. Mouse Trpa1 cDNA was subcloned into pCGN-HA backbone (Addgene) using In-Fusion HD Cloning Kit (Clontech Laboratories, CA). Q5 Site-Directed Mutagenesis Kit was used to generate mTrpa1 mutant (M1-M13) based on pCGN-mTrpa1.
Cell Culture and Transfection. CD4^+ Myla cell line was cultured in RPMI 1640 media (GIBCO), supplemented with 2 mM Glutamine (GIBCO), 100 U/mL IL-2 (Sigma), 100 U/mL IL-4 (Sigma), and 10% human AB serum (Sigma). HuT 102 cell line was cultured in RPMI 1640 supplemented with pyruvate, HEPES, and 10% (v/v) fetal bovine serum (HyClone). HEK293-hTRPA1 stable cell line was cultured in MEM (GIBCO) containing 2 mM Glutamine, 4 μg/mL Blasticidin, 10% FBS (v/v). B16 and CHO cells were cultured in high glucose (4.5 g/L) Dulbecco's Modified Eagle's Medium (GIBCO) containing 10% (v/v) fetal bovine serum (GIBCO). Culture media were supplemented with 50 units/mL of penicillin and 50 μg/mL streptomycin, and cultures were maintained with 5% CO2 in 37° C. incubator. Transfection (2 μg cDNA) was performed with Lipofectamine™ 2000 Reagent (Invitrogen) at 80% confluency and the transfected cells were cultured in the same media for 48 hr before electrophysiological and biochemical studies. […]

mTRPA1 = target: T2, mTRPA1 (Mus musculus, UniProt Q8BLA8); experiment: Live cell labeling with Cy3-labeled oligos in cultured DRG neurons; type: binding; settings: 10 μM Cy3-labeled oligo, 15 min
T2 construct: endogenous in cells; host or cells: dissociated mouse DRG neurons in primary culture
T2 sequence (Q8BLA8 whole entry): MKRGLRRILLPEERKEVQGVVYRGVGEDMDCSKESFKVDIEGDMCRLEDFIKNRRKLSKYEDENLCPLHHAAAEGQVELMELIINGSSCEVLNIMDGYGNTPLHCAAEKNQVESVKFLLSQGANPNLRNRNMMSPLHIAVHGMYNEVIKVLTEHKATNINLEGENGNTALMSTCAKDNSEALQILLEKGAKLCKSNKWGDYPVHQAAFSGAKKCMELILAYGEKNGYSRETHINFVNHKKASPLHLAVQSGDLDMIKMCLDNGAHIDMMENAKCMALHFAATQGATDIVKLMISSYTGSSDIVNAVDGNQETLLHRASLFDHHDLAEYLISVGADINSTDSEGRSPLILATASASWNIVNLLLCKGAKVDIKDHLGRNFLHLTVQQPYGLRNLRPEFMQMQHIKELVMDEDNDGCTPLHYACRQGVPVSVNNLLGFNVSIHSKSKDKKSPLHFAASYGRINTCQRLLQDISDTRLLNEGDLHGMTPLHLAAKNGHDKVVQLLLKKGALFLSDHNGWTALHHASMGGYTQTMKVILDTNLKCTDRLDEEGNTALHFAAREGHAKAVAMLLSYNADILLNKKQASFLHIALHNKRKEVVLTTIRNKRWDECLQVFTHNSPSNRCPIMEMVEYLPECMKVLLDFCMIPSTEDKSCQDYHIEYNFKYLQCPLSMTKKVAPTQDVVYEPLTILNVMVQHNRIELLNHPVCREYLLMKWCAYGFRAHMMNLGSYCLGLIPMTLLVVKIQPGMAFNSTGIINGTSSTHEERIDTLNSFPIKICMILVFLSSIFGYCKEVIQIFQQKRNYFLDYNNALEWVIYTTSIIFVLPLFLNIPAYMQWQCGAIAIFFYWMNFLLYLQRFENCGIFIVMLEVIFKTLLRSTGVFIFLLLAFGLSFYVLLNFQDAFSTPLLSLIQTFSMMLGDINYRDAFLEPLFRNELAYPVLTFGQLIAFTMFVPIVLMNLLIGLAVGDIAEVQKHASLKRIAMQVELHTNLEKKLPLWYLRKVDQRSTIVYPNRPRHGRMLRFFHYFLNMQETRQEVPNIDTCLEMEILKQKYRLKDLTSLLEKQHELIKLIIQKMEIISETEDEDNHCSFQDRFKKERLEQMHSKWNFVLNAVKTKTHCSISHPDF
Experimental: Live Cell Labeling and Immunocytochemistry in Mouse DRG Neurons. Disassociated DRG neurons were plated on Poly-D-Lysine coated coverslips and cultured in Neurobasal medium supplemented with B27 for 24 hr. Cells were incubated with 10 μM Cy3-labeled miR-711 or miR-711 (m6) in extracellular cell solution for 15 min at 37° C. with 5% CO2. Then the coverslips were washed and incubated with TRPA1 primary antibody (Alomone lab, rabbit, 1:100) at 4° C. for 1 hr. The cells on coverslips were incubated with secondary antibody conjugated to FITC (1:100; Jackson ImmunoResearch, West Grove, Pa.) and examined under a Leica SP5 inverted confocal microscope.

## Cc1ccc(C(C)C)cc1O [carvacrol]
TRPV3
  inward currents: inward currents induced

## Cy3-labeled miR-711: mmu-miR-711-cy3: gggacccggggagagauguaag-cy3 (SEQ ID NO: 20) (GGGACCCGGGGAGAGAUGUAAG; Cy3 label at 3' end, RNA chemistry otherwise not given here, further chemistry not given here)
mTRPA1
  binding to TRPA1 on the cell surface of DRG neurons: binds to TRPA1 on the cell surface

Source: patent US20210283163A1, “COMPOSITIONS AND METHODS FOR THE TREATMENT OF ACUTE AND CHRONIC PRURITIS” (Duke University, priority 2018, published 2021)
